Source: publication PMC7313537 (PLoS ONE, 2020)

Assays:
Experiment in all cases: Broader kinase panel (PerkinElmer)
Assay type in all cases: biochemical
AMPK = conditions: 100 nM
Description: (§1) […]. […] […].

Abl (H396P) = biological target: T1, Abl (H396P) (Homo sapiens, UniProt P00519, H396P); conditions: 100 nM; read-out: Average Percent Inhibition
T1 construct: purchased In-house HTRF panel (56 kinases) and PerkinElmer (161-kinase panel)
Description: as §1

BLK = biological target: T2, BLK (Homo sapiens, UniProt P51451); conditions: 100 nM; read-out: Average Percent Inhibition
T2 construct: purchased In-house HTRF panel (56 kinases) and PerkinElmer (161-kinase panel)
Description: as §1

BRSK2 = biological target: T3, BRSK2 (Homo sapiens, UniProt Q8IWQ3); conditions: 100 nM; read-out: Average Percent Inhibition
T3 construct: purchased In-house HTRF panel (56 kinases) and PerkinElmer (161-kinase panel)
Description: as §1

CAMK2 = conditions: 100 nM
Description: as §1

CDK3 = biological target: T4, CDK3 (Homo sapiens, UniProt Q00526); conditions: 100 nM; read-out: Average Percent Inhibition
T4 construct: purchased In-house HTRF panel (56 kinases) and PerkinElmer (161-kinase panel)
Description: as §1

CDK5/p25 = biological target: T5, CDK5/p25 (Homo sapiens, UniProt Q00535); conditions: 100 nM; read-out: Average Percent Inhibition
T5 construct: purchased In-house HTRF panel (56 kinases) and PerkinElmer (161-kinase panel)
Description: as §1

CK1-gamma 1 = biological target: T6, CK1-gamma 1 (Homo sapiens, UniProt Q9HCP0); conditions: 100 nM; read-out: Average Percent Inhibition
T6 construct: purchased In-house HTRF panel (56 kinases) and PerkinElmer (161-kinase panel)
Description: as §1

CK1g3 (CSNK1G3) = biological target: T7, CK1g3 (CSNK1G3) (Homo sapiens, UniProt Q9Y6M4); conditions: 100 nM; read-out: Average Percent Inhibition
T7 construct: purchased In-house HTRF panel (56 kinases) and PerkinElmer (161-kinase panel)
Description: as §1

CSNK1A1 = biological target: T8, CSNK1A1 (Homo sapiens, UniProt P48729); conditions: 100 nM; read-out: Average Percent Inhibition
T8 construct: purchased In-house HTRF panel (56 kinases) and PerkinElmer (161-kinase panel)
Description: as §1

DAPK1 = biological target: T9, DAPK1 (Homo sapiens, UniProt P53355); conditions: 100 nM; read-out: Average Percent Inhibition
T9 construct: purchased In-house HTRF panel (56 kinases) and PerkinElmer (161-kinase panel)
Description: as §1

DCAMKL2 = biological target: T10, DCAMKL2 (Homo sapiens, UniProt Q8N568); conditions: 100 nM; read-out: Average Percent Inhibition
T10 construct: purchased In-house HTRF panel (56 kinases) and PerkinElmer (161-kinase panel)
Description: as §1

EGFR (ErbB1) T790M L858R = biological target: T11, EGFR (ErbB1) T790M L858R (Homo sapiens, UniProt P00533, L858R/T790M); conditions: 100 nM; read-out: Average Percent Inhibition
T11 construct: purchased In-house HTRF panel (56 kinases) and PerkinElmer (161-kinase panel)
Description: as §1

EGFR = EGFR (Homo sapiens, UniProt P00533); conditions: 100 nM; read-out: Average Percent Inhibition
Description: as §1

EGFR(T790M) = biological target: T12, EGFR(T790M) (Homo sapiens, UniProt P00533, T790M); conditions: 100 nM; read-out: Average Percent Inhibition
T12 construct: purchased In-house HTRF panel (56 kinases) and PerkinElmer (161-kinase panel)
Description: as §1

EPHA5 = biological target: T13, EPHA5 (Homo sapiens, UniProt P54756); conditions: 100 nM; read-out: Average Percent Inhibition
T13 construct: purchased In-house HTRF panel (56 kinases) and PerkinElmer (161-kinase panel)
Description: as §1

EPHA8 = biological target: T14, EPHA8 (Homo sapiens, UniProt P29322); conditions: 100 nM; read-out: Average Percent Inhibition
T14 construct: purchased In-house HTRF panel (56 kinases) and PerkinElmer (161-kinase panel)
Description: as §1

EPHB2 = biological target: T15, EPHB2 (Homo sapiens, UniProt P29323); conditions: 100 nM; read-out: Average Percent Inhibition
T15 construct: purchased In-house HTRF panel (56 kinases) and PerkinElmer (161-kinase panel)
Description: as §1

FLT1 = biological target: T16, FLT1 (Homo sapiens, UniProt P17948); conditions: 100 nM; read-out: Average Percent Inhibition
T16 construct: purchased In-house HTRF panel (56 kinases) and PerkinElmer (161-kinase panel)
Description: as §1

FMS = biological target: T17, FMS (Homo sapiens, UniProt P07333); conditions: 100 nM; read-out: Average Percent Inhibition
T17 construct: purchased In-house HTRF panel (56 kinases) and PerkinElmer (161-kinase panel)
Description: as §1

IRAK4 = biological target: T18, IRAK4 (Homo sapiens, UniProt Q9NWZ3); conditions: 100 nM; read-out: Average Percent Inhibition
T18 construct: purchased In-house HTRF panel (56 kinases) and PerkinElmer (161-kinase panel)
Description: as §1

JAK2 = biological target: T19, JAK2 (Homo sapiens, UniProt O60674); conditions: 100 nM; read-out: Average Percent Inhibition
T19 construct: purchased In-house HTRF panel (56 kinases) and PerkinElmer (161-kinase panel)
Description: as §1

KDR = KDR (Homo sapiens, UniProt P35968); conditions: 100 nM; read-out: Average Percent Inhibition
Description: as §1

LTK = biological target: T20, LTK (Homo sapiens, UniProt P29376); conditions: 100 nM; read-out: Average Percent Inhibition
T20 construct: purchased In-house HTRF panel (56 kinases) and PerkinElmer (161-kinase panel)
Description: as §1

MARK2 = biological target: T21, MARK2 (Homo sapiens, UniProt Q7KZI7); conditions: 100 nM; read-out: Average Percent Inhibition
T21 construct: purchased In-house HTRF panel (56 kinases) and PerkinElmer (161-kinase panel)
Description: as §1

MARK4 = biological target: T22, MARK4 (Homo sapiens, UniProt Q96L34); conditions: 100 nM; read-out: Average Percent Inhibition
T22 construct: purchased In-house HTRF panel (56 kinases) and PerkinElmer (161-kinase panel)
Description: as §1

MINK = MINK (Homo sapiens, UniProt Q8N4C8); conditions: 100 nM; read-out: Average Percent Inhibition
Description: as §1

PAK2 = biological target: T23, PAK2 (Homo sapiens, UniProt Q13177); conditions: 100 nM; read-out: Average Percent Inhibition
T23 construct: purchased In-house HTRF panel (56 kinases) and PerkinElmer (161-kinase panel)
Description: as §1

PDGFR-alpha (V561D) = biological target: T24, PDGFR-alpha (V561D) (Homo sapiens, UniProt P16234, V561D); conditions: 100 nM; read-out: Average Percent Inhibition
T24 construct: purchased In-house HTRF panel (56 kinases) and PerkinElmer (161-kinase panel)
Description: as §1

PDGFR_alpha = biological target: T25, PDGFR_alpha (Homo sapiens, UniProt P16234); conditions: 100 nM; read-out: Average Percent Inhibition
T25 construct: purchased In-house HTRF panel (56 kinases) and PerkinElmer (161-kinase panel)
Description: as §1

PKC-alpha = biological target: T26, PKC-alpha (Homo sapiens, UniProt P17252); conditions: 100 nM; read-out: Average Percent Inhibition
T26 construct: purchased In-house HTRF panel (56 kinases) and PerkinElmer (161-kinase panel)
Description: as §1

PKC-beta1 = biological target: T27, PKC-beta1 (Homo sapiens, UniProt P05771); conditions: 100 nM; read-out: Average Percent Inhibition
T27 construct: purchased In-house HTRF panel (56 kinases) and PerkinElmer (161-kinase panel)
Description: as §1

PKC-gamma = biological target: T28, PKC-gamma (Homo sapiens, UniProt P05129); conditions: 100 nM; read-out: Average Percent Inhibition
T28 construct: purchased In-house HTRF panel (56 kinases) and PerkinElmer (161-kinase panel)
Description: as §1

PKD1 = biological target: T29, PKD1 (Homo sapiens, UniProt Q15139); conditions: 100 nM; read-out: Average Percent Inhibition
T29 construct: purchased In-house HTRF panel (56 kinases) and PerkinElmer (161-kinase panel)
Description: as §1

PKG1-beta = biological target: T30, PKG1-beta (Homo sapiens, UniProt Q13976); conditions: 100 nM; read-out: Average Percent Inhibition
T30 construct: purchased In-house HTRF panel (56 kinases) and PerkinElmer (161-kinase panel)
Description: as §1

PKGa = biological target: T31, PKGa (Homo sapiens, UniProt Q13976); conditions: 100 nM; read-out: Average Percent Inhibition
T31 construct: purchased In-house HTRF panel (56 kinases) and PerkinElmer (161-kinase panel)
Description: as §1

PRKX = biological target: T32, PRKX (Homo sapiens, UniProt P51817); conditions: 100 nM; read-out: Average Percent Inhibition
T32 construct: purchased In-house HTRF panel (56 kinases) and PerkinElmer (161-kinase panel)
Description: as §1

RET Y791F = biological target: T33, RET Y791F (Homo sapiens, UniProt P07949, Y791F); conditions: 100 nM; read-out: Average Percent Inhibition
T33 construct: purchased In-house HTRF panel (56 kinases) and PerkinElmer (161-kinase panel)
Description: as §1

SGK2 = biological target: T34, SGK2 (Homo sapiens, UniProt Q9HBY8); conditions: 100 nM; read-out: Average Percent Inhibition
T34 construct: purchased In-house HTRF panel (56 kinases) and PerkinElmer (161-kinase panel)
Description: as §1

SGK3 = SGK3 (Homo sapiens, UniProt Q96BR1); conditions: 100 nM; read-out: Average Percent Inhibition
Description: as §1

TEC = biological target: T35, TEC (Homo sapiens, UniProt P42680); conditions: 100 nM; read-out: Average Percent Inhibition
T35 construct: purchased In-house HTRF panel (56 kinases) and PerkinElmer (161-kinase panel)
Description: as §1

p38a = biological target: T36, p38a (Homo sapiens, UniProt Q16539); conditions: 100 nM; read-out: Average Percent Inhibition
T36 construct: purchased In-house HTRF panel (56 kinases) and PerkinElmer (161-kinase panel)
Description: as §1

p38alpha/SAPK2a (T106M) = biological target: T37, p38alpha/SAPK2a (T106M) (Homo sapiens, UniProt Q16539, T106M); conditions: 100 nM; read-out: Average Percent Inhibition
T37 construct: purchased In-house HTRF panel (56 kinases) and PerkinElmer (161-kinase panel)
Description: as §1

T4 sequence (Q00526 whole entry): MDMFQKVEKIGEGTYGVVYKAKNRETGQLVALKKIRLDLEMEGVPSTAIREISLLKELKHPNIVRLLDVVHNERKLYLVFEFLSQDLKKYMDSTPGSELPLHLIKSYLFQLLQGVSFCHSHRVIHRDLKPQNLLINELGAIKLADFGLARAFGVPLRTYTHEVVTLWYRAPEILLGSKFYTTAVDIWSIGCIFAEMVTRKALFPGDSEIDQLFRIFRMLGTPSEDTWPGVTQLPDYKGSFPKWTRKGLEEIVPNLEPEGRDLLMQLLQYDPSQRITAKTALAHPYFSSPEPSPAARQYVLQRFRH
T4 sequence (P24864 whole entry partner): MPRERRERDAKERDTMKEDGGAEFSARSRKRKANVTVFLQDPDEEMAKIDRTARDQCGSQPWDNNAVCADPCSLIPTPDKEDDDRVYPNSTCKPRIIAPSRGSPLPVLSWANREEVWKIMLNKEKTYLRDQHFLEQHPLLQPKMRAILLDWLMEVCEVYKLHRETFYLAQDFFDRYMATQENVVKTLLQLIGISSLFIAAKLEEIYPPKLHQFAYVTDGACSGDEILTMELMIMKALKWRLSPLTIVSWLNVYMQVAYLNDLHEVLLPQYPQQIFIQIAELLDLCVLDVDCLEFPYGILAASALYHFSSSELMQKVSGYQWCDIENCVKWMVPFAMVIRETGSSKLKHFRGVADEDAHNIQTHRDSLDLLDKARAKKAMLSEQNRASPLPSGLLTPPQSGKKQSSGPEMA
T36 sequence (Q16539 whole entry): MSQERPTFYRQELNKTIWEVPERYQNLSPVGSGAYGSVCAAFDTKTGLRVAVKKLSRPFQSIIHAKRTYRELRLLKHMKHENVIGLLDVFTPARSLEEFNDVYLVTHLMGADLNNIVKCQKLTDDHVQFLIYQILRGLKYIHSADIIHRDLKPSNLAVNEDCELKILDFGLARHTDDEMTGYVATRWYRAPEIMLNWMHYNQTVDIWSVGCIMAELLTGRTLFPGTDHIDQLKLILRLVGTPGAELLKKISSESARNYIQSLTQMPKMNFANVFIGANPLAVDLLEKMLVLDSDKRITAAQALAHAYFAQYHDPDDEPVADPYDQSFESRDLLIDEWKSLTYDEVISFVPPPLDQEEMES
T33 sequence (P07949 29-1114 Y791F): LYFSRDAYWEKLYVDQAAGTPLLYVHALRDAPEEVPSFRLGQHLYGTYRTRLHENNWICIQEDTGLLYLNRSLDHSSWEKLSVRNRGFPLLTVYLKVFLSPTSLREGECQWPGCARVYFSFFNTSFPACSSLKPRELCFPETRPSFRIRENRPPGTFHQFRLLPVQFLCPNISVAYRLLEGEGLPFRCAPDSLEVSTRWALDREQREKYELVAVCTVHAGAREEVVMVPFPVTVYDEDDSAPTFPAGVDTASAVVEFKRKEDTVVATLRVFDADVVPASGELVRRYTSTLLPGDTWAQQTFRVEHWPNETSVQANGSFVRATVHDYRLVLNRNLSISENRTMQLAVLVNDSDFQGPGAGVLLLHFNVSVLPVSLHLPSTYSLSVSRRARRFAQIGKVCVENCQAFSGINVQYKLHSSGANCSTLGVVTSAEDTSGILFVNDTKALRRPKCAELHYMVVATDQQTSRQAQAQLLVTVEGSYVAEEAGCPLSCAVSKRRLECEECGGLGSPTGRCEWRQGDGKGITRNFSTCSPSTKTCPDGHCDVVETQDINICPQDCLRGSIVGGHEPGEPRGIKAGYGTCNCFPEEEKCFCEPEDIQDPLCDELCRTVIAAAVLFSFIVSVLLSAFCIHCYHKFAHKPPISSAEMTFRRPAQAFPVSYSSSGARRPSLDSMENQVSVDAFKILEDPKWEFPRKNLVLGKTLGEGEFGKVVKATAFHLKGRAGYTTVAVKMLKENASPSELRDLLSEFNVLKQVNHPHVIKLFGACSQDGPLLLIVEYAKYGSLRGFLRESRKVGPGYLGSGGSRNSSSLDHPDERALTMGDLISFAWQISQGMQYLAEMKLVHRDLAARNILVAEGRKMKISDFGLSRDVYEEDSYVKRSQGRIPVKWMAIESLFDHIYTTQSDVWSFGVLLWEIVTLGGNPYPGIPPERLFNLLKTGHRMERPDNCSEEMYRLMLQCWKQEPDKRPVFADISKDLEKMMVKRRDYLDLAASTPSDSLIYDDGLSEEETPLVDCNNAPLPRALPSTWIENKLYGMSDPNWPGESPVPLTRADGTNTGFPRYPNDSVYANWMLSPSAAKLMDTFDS
T8 sequence (P48729 whole entry): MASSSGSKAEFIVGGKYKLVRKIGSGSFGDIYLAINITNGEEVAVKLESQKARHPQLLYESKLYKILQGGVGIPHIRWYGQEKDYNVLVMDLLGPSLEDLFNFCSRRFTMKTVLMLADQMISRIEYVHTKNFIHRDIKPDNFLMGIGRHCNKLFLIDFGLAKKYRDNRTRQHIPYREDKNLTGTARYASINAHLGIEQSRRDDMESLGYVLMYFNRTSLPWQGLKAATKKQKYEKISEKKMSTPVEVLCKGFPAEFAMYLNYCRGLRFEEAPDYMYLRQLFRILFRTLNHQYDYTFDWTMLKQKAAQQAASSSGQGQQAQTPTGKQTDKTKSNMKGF
Sequence of KDR (P35968 20-1356): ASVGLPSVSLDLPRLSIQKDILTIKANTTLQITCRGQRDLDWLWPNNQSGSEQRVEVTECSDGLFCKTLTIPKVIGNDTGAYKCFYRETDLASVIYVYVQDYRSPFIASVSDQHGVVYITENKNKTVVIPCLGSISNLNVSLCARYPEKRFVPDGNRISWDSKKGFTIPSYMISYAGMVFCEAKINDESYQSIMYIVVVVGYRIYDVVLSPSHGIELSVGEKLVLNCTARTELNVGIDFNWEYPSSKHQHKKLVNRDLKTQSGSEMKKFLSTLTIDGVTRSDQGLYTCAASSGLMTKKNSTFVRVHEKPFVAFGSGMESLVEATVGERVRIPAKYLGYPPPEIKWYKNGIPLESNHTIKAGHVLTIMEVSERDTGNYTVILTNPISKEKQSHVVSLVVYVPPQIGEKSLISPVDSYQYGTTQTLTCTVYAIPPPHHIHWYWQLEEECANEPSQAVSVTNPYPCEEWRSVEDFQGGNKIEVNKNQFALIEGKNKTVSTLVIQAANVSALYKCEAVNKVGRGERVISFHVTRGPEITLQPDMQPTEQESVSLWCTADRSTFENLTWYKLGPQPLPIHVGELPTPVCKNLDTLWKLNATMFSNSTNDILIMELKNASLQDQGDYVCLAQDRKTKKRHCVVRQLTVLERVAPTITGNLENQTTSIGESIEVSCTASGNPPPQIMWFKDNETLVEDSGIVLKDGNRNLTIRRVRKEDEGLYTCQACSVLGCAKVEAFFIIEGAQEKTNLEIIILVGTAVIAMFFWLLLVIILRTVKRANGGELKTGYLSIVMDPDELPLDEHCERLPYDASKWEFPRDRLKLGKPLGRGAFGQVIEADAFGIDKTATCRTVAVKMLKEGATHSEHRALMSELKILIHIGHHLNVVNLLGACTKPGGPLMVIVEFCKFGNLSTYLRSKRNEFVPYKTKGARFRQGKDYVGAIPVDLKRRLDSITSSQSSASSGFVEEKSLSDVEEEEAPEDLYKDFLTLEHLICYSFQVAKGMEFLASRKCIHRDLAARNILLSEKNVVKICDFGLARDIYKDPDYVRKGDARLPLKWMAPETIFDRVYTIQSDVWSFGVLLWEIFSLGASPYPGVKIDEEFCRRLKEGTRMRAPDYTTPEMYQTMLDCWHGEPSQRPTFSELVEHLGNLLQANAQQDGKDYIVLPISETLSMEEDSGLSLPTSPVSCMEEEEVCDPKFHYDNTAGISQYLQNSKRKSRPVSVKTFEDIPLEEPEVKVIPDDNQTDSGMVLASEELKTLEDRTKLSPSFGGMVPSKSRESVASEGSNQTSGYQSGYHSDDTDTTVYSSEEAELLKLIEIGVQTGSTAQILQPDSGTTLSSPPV
T7 sequence (Q9Y6M4 whole entry): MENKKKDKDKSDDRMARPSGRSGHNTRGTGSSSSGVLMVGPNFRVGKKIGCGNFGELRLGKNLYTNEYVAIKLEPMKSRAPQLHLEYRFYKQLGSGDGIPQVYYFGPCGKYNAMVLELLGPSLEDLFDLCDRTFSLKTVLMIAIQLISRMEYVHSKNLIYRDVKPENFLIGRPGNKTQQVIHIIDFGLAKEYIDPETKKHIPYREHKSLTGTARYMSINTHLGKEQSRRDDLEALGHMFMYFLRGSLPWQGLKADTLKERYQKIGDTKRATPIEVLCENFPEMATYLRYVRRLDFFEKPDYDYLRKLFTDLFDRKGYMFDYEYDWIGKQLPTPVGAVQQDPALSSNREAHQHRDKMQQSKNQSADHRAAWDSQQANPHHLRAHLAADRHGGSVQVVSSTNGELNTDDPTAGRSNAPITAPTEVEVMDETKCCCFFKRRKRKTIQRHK
T37 sequence (Q16539 whole entry T106M): as the sequence (Q16539 whole entry) above, with T106M counted along it
T6 sequence (Q9HCP0 whole entry): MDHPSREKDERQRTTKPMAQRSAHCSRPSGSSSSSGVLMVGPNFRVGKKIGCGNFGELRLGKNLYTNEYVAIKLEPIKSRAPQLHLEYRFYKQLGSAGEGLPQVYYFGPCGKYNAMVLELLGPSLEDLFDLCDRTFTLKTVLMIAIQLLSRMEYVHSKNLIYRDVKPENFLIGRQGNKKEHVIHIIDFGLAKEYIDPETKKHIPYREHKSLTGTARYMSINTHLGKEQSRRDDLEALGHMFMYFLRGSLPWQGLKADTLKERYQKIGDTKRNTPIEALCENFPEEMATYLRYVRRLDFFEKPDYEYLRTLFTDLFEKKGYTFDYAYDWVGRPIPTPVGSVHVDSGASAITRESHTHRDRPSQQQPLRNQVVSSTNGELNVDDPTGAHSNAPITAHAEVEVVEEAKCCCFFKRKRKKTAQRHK

SMILES: CCN1C(=O)N(c2c(F)c(OC)cc(OC)c2F)Cc2cnc3[nH]c(CN4CCOCC4)cc3c21 [INCB054828, pemigatinib]
- Average Percent Inhibition (AMPK): 4%
- inhibition at 0.1 µM (Abl (H396P)): -1%
- inhibition at 0.1 µM (BLK): -10%
- inhibition at 0.1 µM (BRSK2): -2%
- Average Percent Inhibition (CAMK2): 2%
- inhibition at 0.1 µM (CDK3): 11%
- inhibition at 0.1 µM (CDK5/p25): -4%
- inhibition at 0.1 µM (CK1-gamma 1): -3%
- inhibition at 0.1 µM (CK1g3 (CSNK1G3)): 0%
- inhibition at 0.1 µM (CSNK1A1): -1%
- inhibition at 0.1 µM (DAPK1): 1%
- inhibition at 0.1 µM (DCAMKL2): 3%
- inhibition at 0.1 µM (EGFR (ErbB1) T790M L858R): 5%
- inhibition at 0.1 µM (EGFR): 23%
- inhibition at 0.1 µM (EGFR(T790M)): -1%
- inhibition at 0.1 µM (EPHA5): 2%
- inhibition at 0.1 µM (EPHA8): -2%
- inhibition at 0.1 µM (EPHB2): 3%
- inhibition at 0.1 µM (FLT1): 13%
- inhibition at 0.1 µM (FMS): -10%
- inhibition at 0.1 µM (IRAK4): 0%
- inhibition at 0.1 µM (JAK2): 8%
- inhibition at 0.1 µM (KDR): 45%
- inhibition at 0.1 µM (LTK): -17%
- inhibition at 0.1 µM (MARK2): 5%
- inhibition at 0.1 µM (MARK4): -4%
- inhibition at 0.1 µM (MINK): 2%
- inhibition at 0.1 µM (PAK2): 0%
- inhibition at 0.1 µM (PDGFR-alpha (V561D)): 1%
- inhibition at 0.1 µM (PDGFR_alpha): -4%
- inhibition at 0.1 µM (PKC-alpha): 16%
- inhibition at 0.1 µM (PKC-beta1): 7%
- inhibition at 0.1 µM (PKC-gamma): 7%
- inhibition at 0.1 µM (PKD1): -3%
- inhibition at 0.1 µM (PKG1-beta): -2%
- inhibition at 0.1 µM (PKGa): 1%
- inhibition at 0.1 µM (PRKX): 0%
- inhibition at 0.1 µM (RET Y791F): 6%
- inhibition at 0.1 µM (SGK2): -2%
- inhibition at 0.1 µM (SGK3): 13%
- inhibition at 0.1 µM (TEC): 19%
- inhibition at 0.1 µM (p38a): 1%
- inhibition at 0.1 µM (p38alpha/SAPK2a (T106M)): -3%
